Experimental data from ChEMBL document CHEMBL4813915, “Deep learning enables discovery of highly potent anti-osteoporosis natural products” (Eur J Med Chem, 2021).

What was measured:
BMDM [1] = test: Inhibition of RANKL-induced osteoclastogenesis in C57BL/6 mouse bone marrow derived macrophages assessed as reduction in TRACP mRNA expression measured after 4 days by qRT-PCR method; type: functional, tissue-based; conditions: dose 0.5-5 µM, time 4.0 day
BMDM [2] = test: Inhibition of RANKL-induced osteoclastogenesis in C57BL/6 mouse bone marrow derived macrophages assessed as reduction in CTSK mRNA expression measured after 4 days by qRT-PCR method; type: functional, tissue-based; conditions: dose 0.5-5 µM, time 4.0 day
BMDM [3] = test: Inhibition of RANKL-induced osteoclastogenesis in C57BL/6 mouse bone marrow derived macrophages assessed as reduction in RANK mRNA expression measured after 4 days by qRT-PCR method; type: functional, tissue-based; conditions: dose 0.5-5 µM, time 4.0 day
BMDM [4] = test: Inhibition of RANKL-induced osteoclastogenesis in C57BL/6 mouse bone marrow derived macrophages assessed as reduction in NFATC1 mRNA expression measured after 4 days by qRT-PCR method; type: functional, tissue-based; conditions: dose 0.5-5 µM, time 4.0 day
[5] = Cytotoxicity against C57BL/6 mouse bone marrow measured after 48 hrs by CCK8 assay; type: tissue-based, BMDM; conditions: mouse bone marrow cells
[6] = Inhibition of GST-tagged recombinant RANKL/M-CSF-induced osteoclastogenesis in C57BL/6 mouse bone marrow derived macrophages assessed as TRAcP enzymatic activity incubated for 5 days with subsequent replenishment of media for 2 days and measured by leucocyte acid phosphatase staining method; type: functional, tissue-based; conditions: bmdm

Structure (SMILES)	IC50 ([6]; read-out: IC50) [nM]	IC50 [6]	also measured
COc1cc2c(cc1OC)C(Cc1ccc(OCc3ccccc3)c(OC)c1)=NCC2	32		inhibition (BMDM [1]): Dose-Dependent Effect; inhibition (BMDM [2]): Dose-Dependent Effect; inhibition (BMDM [3]): Dose-Dependent Effect; inhibition (BMDM [4]): Dose-Dependent Effect; CC50 at 48 h [5]: 26800 nM
COc1ccc(C(=O)/C=C/c2ccccc2)c(O)c1		Not Active	
COc1ccc(C[C@H]2c3cc(OC)c(OC)cc3CCN2C)cc1OC		Not Active	
CC(=O)[C@H]1CC[C@H]2[C@@H]3CC[C@H]4C[C@@H](OC(=O)Cc5ccc(C(=O)c6ccccc6)cc5)CC[C@]4(C)[C@H]3CC[C@]12C	1730		
COc1c2cc3c(cc2nc2occc12)OCO3 [MACULINE]		Not Active	
C[C@@H]1CC[C@@]2(OC1)O[C@H]1C[C@H]3[C@@H]4CC[C@H]5C[C@H](O)CC[C@]5(C)C4=CC[C@]3(C)[C@H]1[C@@H]2C		Not Active	
COc1cc([C@H]2OC[C@H]3[C@@H]2CO[C@@H]3c2ccc(OC(C)=O)c(OC)c2)ccc1OC(C)=O		Not Active	
COc1ccc2c(c1)CCN=C2Cc1ccc(OCc2ccccc2)c(OC)c1C	68		inhibition (BMDM [1]): Dose-Dependent Effect; inhibition (BMDM [2]): Dose-Dependent Effect; inhibition (BMDM [3]): Dose-Dependent Effect; inhibition (BMDM [4]): Dose-Dependent Effect; CC50 at 48 h [5]: 19900 nM
C=C1CC[C@@H]2[C@](C)(CO)[C@H](O)CC[C@@]2(C)[C@@H]1C/C=C1/C(=O)OC[C@H]1O [ANDROGRAPHOLIDE]	550		
COc1cc2nc3occc3c(OC)c2cc1OC [KOKUSAGININE]	3160		
